pIC50: −log10 of the molar value.

This assay deals with GyrB ATPase activity (E. coli GyrA, E. coli GyrB) (Escherichia coli, UniProt P0AES6). Put plainly: GyrB ATPase inhibition activity assay (ammonium molybdate/malachite green phosphate detection). It counts as biochemical. Conditions: figure quoted may be an average of two or more results. As for the experimental part: Compounds may be tested for inhibition of GyrB ATPase activity using an ammonium molybdate/malachite green-based phosphate detection assay (Lanzetta, P. A., L. J. Alvarez, P. S. Reinach, and O. A. Candia, 1979, 100: 95-97). Assays can be performed in multiwell plates in 100 μl reactions containing: 50 mM HEPES buffer pH 7.5, 75 mM ammonium acetate, 5.5 mM magnesium chloride, 0.5 mM ethylenediaminetetraacetic acid, 5% glycerol, 1 mM 1,4-Dithio-DL-threitol, 200 nM bovine serum albumin, 5 μg/ml sheared salmon sperm DNA, 2.5 nM E. coli GyrA, 2.5 nM E. coli GyrB, 250 μM ATP, and compound in dimethylsulfoxide. Reactions can be quenched with 150 μl of ammonium molybdate/malachite green detection reagent containing 1.2 mM malachite green hydrochloride, 8.5 mM ammonium molybdate tetrahydrate, and 1 M hydrochloric acid.
Compounds of the Examples could be expected to have IC50 values of <200 μg/ml in one or both assays described herein above. For Example the following results were obtained in a GyrB ATPase inhibition activity assay substantially similar to the above wherein the figure quoted may be an average of two or more results
Take `COC(=O)c1cnc(N2CC[C@H](NC(=O)c3[nH]c(C)c(Cl)c3Cl)[C@H](n3ccnc3)C2)s1` (racemic) [Example 38, cis(±)Methyl 2-[4-{[(3,4-dichloro-5-methyl-1H-pyrrol-2-yl)carbonyl]amino}-3-(1H-imidazol-1-yl)piperidin-1-yl]-1,3-thiazole-5-carboxylate]: the negative logarithm of the IC50 (pIC50) is 7.04.
Take `COC(=O)c1cnc(N2CC[C@H](NC(=O)c3[nH]c(C)c(Cl)c3Cl)[C@H](n3cncn3)C2)s1` (racemic) [Example 39, cis(±)Methyl 2-[4-{[(3,4-dichloro-5-methyl-1H-pyrrol-2-yl)carbonyl]amino}-3-(1H-1,2,4-triazol-1-yl)piperidin-1-yl]-1,3-thiazole-5-carboxylate]: the pIC50 is 7.48.
Consider `COC(=O)c1cnc(N2CC[C@H](NC(=O)c3[nH]c(C)c(Cl)c3Cl)[C@H](n3cnc(Cl)n3)C2)s1` (racemic) [Example 40, cis(±)Methyl 2-(3-(3-chloro-1H-1,2,4-triazol-1-yl)-4-{[(3,4-dichloro-5-methyl-1H-pyrrol-2-yl)carbonyl]amino}piperidin-1-yl)-1,3-thiazole-5-carboxylate], for which the pIC50 was 7.28.
For `CCOC(=O)c1cccc2nc(N3CC[C@H](NC(=O)c4[nH]c(C)c(Cl)c4Cl)[C@H](n4ccnc4)C3)sc12` (racemic) [Example 41, cis(±)Ethyl 2-[4-{[(3,4-dichloro-5-methyl-1H-pyrrol-2-yl)carbonyl]amino}-3-(1H-imidazol-1-yl)piperidin-1-yl]-1,3-benzothiazole-7-carboxy late] the value was 7.27; for `Cc1[nH]c(C(=O)N[C@H]2CCN(c3ncc(C(=O)O)s3)C[C@H]2n2ccnc2)c(Cl)c1Cl` (racemic) [Example 42, cis(±)2-[4-{[(3,4-Dichloro-5-methyl-1H-pyrrol-2-yl)carbonyl]amino}-3-(1H-imidazol-1-yl)piperidin-1-yl]-1,3-thiazole-5-carboxylic acid], over 7.12.
For `Cc1[nH]c(C(=O)N[C@H]2CCN(c3ncc(C(=O)O)s3)C[C@H]2n2cncn2)c(Cl)c1Cl` (racemic) [Example 43, cis(±)2-[4-{[(3,4-Dichloro-5-methyl-1H-pyrrol-2-yl)carbonyl]amino}-3-(1H-1,2,4-triazol-1-yl)piperidin-1-yl]-1,3-thiazole-5-carboxylic acid] the value was over 8.01.
Turning to `Cc1[nH]c(C(=O)N[C@H]2CCN(c3nc4cccc(C(=O)O)c4s3)C[C@H]2n2ccnc2)c(Cl)c1Cl` (racemic) [Example 44, cis(±)2-[4-{[(3,4-Dichloro-5-methyl-1H-pyrrol-2-yl)carbonyl]amino}-3-(1H-imidazol-1-yl)piperidin-1-yl]-1,3-benzothiazole-7-carboxylic acid], the pIC50 was over 8.01.
`Cc1[nH]c(C(=O)N[C@H]2CCN(c3ncc(C(=O)O)s3)C[C@H]2n2cnc(Cl)n2)c(Cl)c1Cl` (racemic) [Example 45, cis(±)2-(3-(3-Chloro-1H-1,2,4-triazol-1-yl)-4-{[(3,4-dichloro-5-methyl-1H-pyrrol-2-yl)carbonyl]amino}piperidin-1-yl)-1,3-thiazole-5-carboxylic acid] had a negative-log IC50 (pIC50) of over 8.01.
Under `CONC(=O)c1cccc2nc(N3CC[C@H](NC(=O)c4[nH]c(C)c(Cl)c4Cl)[C@H](n4ccnc4)C3)sc12` (racemic) [Example 46, cis(±)2-[4-{[(3,4-Dichloro-5-methyl-1H-pyrrol-2-yl)carbonyl]amino}-3-(1H-imidazol-1-yl)piperidin-1-yl]-N-methoxy-1,3-benzothiazole-7-carboxamide] stands over 8.01.
`Cc1[nH]c(C(=O)N[C@H]2CCN(c3ncc(C(N)=O)s3)C[C@H]2n2ccnc2)c(Cl)c1Cl` (racemic) [Example 47, cis(±)2-[4-{[(3,4-Dichloro-5-methyl-1H-pyrrol-2-yl)carbonyl]amino}-3-(1H-imidazol-1-yl)piperidin-1-yl]-1,3-thiazole-5-carboxamide] showed a negative logarithm of the IC50 (pIC50) of 7.59.
In turn, `CCOC(=O)c1sc(N2CC[C@H](NC(=O)c3[nH]c(C)c(Cl)c3Cl)[C@H](n3cncn3)C2)nc1C(=O)N[C@@H](C)COC` (racemic) [Example 48, cis(±)Ethyl 2-[4-{[(3,4-dichloro-5-methyl-1H-pyrrol-2-yl)carbonyl]amino}-3-(1H-1,2,4-triazol-1-yl)piperidin-1-yl]-4-({[(1S)-2-methoxy-1-methylethyl]amino}carbonyl)-1,3-thiazole-5-carboxylate] gave a negative logarithm of the IC50 (pIC50) of 7.44.
For `CCOC(=O)c1sc(N2CC[C@H](NC(=O)c3[nH]c(C)c(Cl)c3Cl)[C@H](n3cncn3)C2)nc1C(=O)O` (racemic) [Example 49, cis(±)2-[4-{[(3,4-Dichloro-5-methyl-1H-pyrrol-2-yl)carbonyl]amino}-3-(1H-1,2,4-triazol-1-yl)piperidin-1-yl]-5-(ethoxycarbonyl)-1,3-thiazole-4-carboxylic acid], the negative-log IC50 (pIC50) is over 8.01.
Under `COC[C@H](C)NC(=O)c1nc(N2CC[C@H](NC(=O)c3[nH]c(C)c(Cl)c3Cl)[C@H](n3cncn3)C2)sc1C(=O)O` (racemic) [Example 50, cis(±)2-[4-{[(3,4-Dichloro-5-methyl-1H-pyrrol-2-yl)carbonyl]amino}-3-(1H-1,2,4-triazol-1-yl)piperidin-1-yl]-4-({[(1S)-2-methoxy-1-methylethyl]amino}carbonyl)-1,3-thiazole-5-carboxylic acid] stands over 8.01.
`COC(=O)c1cnc(N2CC[C@H](NC(=O)c3[nH]c(C)c(Cl)c3Cl)[C@H](N=[N+]=[N-])C2)s1` (racemic) [Example 65, cis(±)Methyl 2-(3-azido-4-{[(3,4-dichloro-5-methyl-1H-pyrrol-2-yl)carbonyl]amino}piperidin-1-yl)-1,3-thiazole-5-carboxylate]: the pIC50 was over 8.01.
For `Cc1[nH]c(C(=O)N[C@H]2CCN(c3ncc(C(=O)O)s3)C[C@H]2N=[N+]=[N-])c(Cl)c1Cl` (racemic) [Example 66, cis(±)-2-(3-Azido-4-{[(3,4-dichloro-5-methyl-1H-pyrrol-2-yl)carbonyl]amino}piperidin-1-yl)-1,3-thiazole-5-carboxylic acid] the value was over 8.01.
Under `Cc1[nH]c(C(=O)N[C@H]2CCN(c3ncc(C(=O)O)s3)C[C@H]2N)c(Cl)c1Cl` (racemic) [Example 68, cis(±)2-(3-Amino-4-{[(3,4-dichloro-5-methyl-1H-pyrrol-2-yl)carbonyl]amino}piperidin-1-yl)-1,3-thiazole-5-carboxylic acid] stands 6.54.
The molecule `Cc1[nH]c(C(=O)N[C@H]2CCN(c3ncc(C(=O)O)s3)C[C@H]2n2ccnn2)c(Cl)c1Cl` (racemic) [Example 119, cis(±)2-[4-{[(3,4-Dichloro-5-methyl-1H-pyrrol-2-yl)carbonyl]amino}-3-(1H-1,2,3-triazol-1-yl)piperidin-1-yl]-1,3-thiazole-5-carboxylic acid] showed a pIC50 of 7.91.
Molecule `COC(=O)c1cnc(N2CC[C@H](NC(=O)c3[nH]c(C)c(Cl)c3Cl)[C@H](n3cc(C)nn3)C2)s1` (racemic) [Example 121, cis(±)Methyl 2-[4-{[(3,4-dichloro-5-methyl-1H-pyrrol-2-yl)carbonyl]amino}-3-(4-methyl-1H-1,2,3-triazol-1-yl)piperidin-1-yl]-1,3-thiazole-5-carboxylate] had a negative logarithm of the IC50 (pIC50) of 7.43.

The record behind these values is patent publication US20100286181A1, “PYRROLE DERIVATIVES WITH ANTIBACTERIAL ACTIVITY” (ASTRAZENECA AB, priority 2006, published 2010).
